Tests used:
[1] = system: S. aureus (MRSA strain 38); details: in vivo, iv
MRSA strain 38 = system: MRSA strain 38; set-up: species or system S. aureus; details: in vivo

SMILES: CN[C@H](CC(C)C)C(=O)N[C@H]1C(=O)N[C@@H](CC(N)=O)C(=O)N[C@H]2C(=O)N[C@H]3C(=O)N[C@H](C(=O)N[C@H](C(=O)O)c4cc(O)cc(O)c4-c4cc3ccc4O)[C@H](O)c3ccc(c(Cl)c3)Oc3cc2cc(c3O[C@@H]2O[C@H](CO)[C@@H](O)[C@H](O)[C@H]2O[C@H]2C[C@](C)(N)[C@H](O)[C@H](C)O2)Oc2ccc(cc2Cl)[C@H]1O [vancomycin]
- IFN-γ in serum [1]: 2.98 ± 1.64
- IL-1β in serum [1]: 3.51 ± 1.08
- IL-6 in serum [1]: 379.72 ± 335.45
- IL-10 in serum [1]: 16.75 ± 6.67
- IL-12p70 in serum [1]: 61.55 ± 23.71
- KC/GRO in serum [1]: 260.69 ± 122.01
- TNF-α in serum [1]: 1.46 ± 0.68
- mIL-1ra level in abscess fluid (MRSA strain 38): not significantly reduced
- mIL-6 level in abscess fluid (MRSA strain 38): not significantly reduced
- neutrophil and eosinophil counts (MRSA strain 38): lower

— patent US20160039914A1 (priority 2013, published 2016)
